Results published in publication PMC11680790, “Structural and functional determination of peptide versus small molecule ligand binding at the apelin receptor” (Nature Communications, 2024).
Numbering of substitutions follows the chain as printed. pKd: −log10 of the molar value. Where no end group is shown, it is not given here. 647 dye = not defined here

Columns and labels:
[1] = target: T1, T/M89^2.64 variant apelin receptor (Homo sapiens, UniProt P35414, T89M); test: Saturation radioligand binding, CHO-K1 membranes, T/M89^2.64; settings: mean ± SD, n = 3
T1 construct: expressed in transfected cells; host or cells: CHO-K1, transient, pcDNA3.1
T1 sequence (P35414 1-380 T89M): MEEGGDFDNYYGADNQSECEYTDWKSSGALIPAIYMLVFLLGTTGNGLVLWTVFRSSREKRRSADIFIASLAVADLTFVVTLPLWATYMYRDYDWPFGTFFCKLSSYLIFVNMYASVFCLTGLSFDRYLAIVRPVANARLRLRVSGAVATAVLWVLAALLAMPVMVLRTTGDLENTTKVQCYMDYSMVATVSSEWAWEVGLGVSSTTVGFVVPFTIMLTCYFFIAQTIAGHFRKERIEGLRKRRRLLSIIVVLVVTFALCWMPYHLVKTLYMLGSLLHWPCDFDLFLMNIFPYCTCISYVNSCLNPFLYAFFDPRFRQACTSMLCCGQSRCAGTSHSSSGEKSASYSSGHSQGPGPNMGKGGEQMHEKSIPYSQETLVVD
Experimental: (§1) The radiolabel has a specific activity of 2200 Ci/mmol. Plastic-ware used in radioligand binding experiments was coated with Sigmacote, a siliconising reagent that forms a covalent film to reduce sticking of the radiolabel.
(§2) Membrane protein preparations were made by harvesting CHO-K1 cells transiently transfected with wild-type or variant apelin receptor construct into tubes. Tubes were spun at 1000 xg for 10 min at 4 °C to pellet cells, before resuspending and triturating in ice-cold TRIS wash buffer (50 mM TRIS-HCl in deionised water, pH balanced to 7.4 at room temperature) to induce complete hypotonic lysis of cells. Cells were spun a second time at 21,000 × g for 20 min at 4 °C, to obtain a crude membrane fraction. Supernatant was discarded and membrane preparations resuspended in TRIS wash buffer. Cell membrane preparations were stored at –70 °C until use in experiments. Protein concentration of cell membrane preparations was determined using a DC Protein Assay (Bio-Rad), as per the manufacturer’s instructions.
(§3) For binding experiments, membrane preparations were diluted in binding buffer (50 mM TRIS-HCl and 5 mM MgCl2, balanced to pH 7.4 at room temperature) to give a final protein concentration of 1 mg/mL. […] At the end-point, samples were spun in a centrifuge at 20,000 × g for 10 min at 4 °C to terminate equilibrium. […]

[2] = tested on: R/H168^4.64 apelin receptor, hESC-CM; test: Saturation radioligand binding, R/H168^4.64 hESC-CM membranes; parameters: species or system human
Experimental: as §1, §2, §3

[3] = target: apelin receptor, homogenised human left ventricle; settings: previously determined by saturation analysis in homogenised human left ventricle; cited from earlier work
Experimental: Heart Homogenate. Ethically approved (Research Ethics Committee 05/Q104/142) surgical samples of human left ventricle tissue were obtained with informed consent at the time of operation from Royal Papworth Hospital Tissue Bank and stored at -80°C. Tissues were homogenised using a Polytron Homogenizer (Thomas Scientific), in buff ...

[4] = tested on: R/H168^4.64 apelin receptor, hESC; test: Saturation radioligand binding, R/H168^4.64 hESC membranes; parameters: species or system human
Experimental: as §1, §2, §3

[5] = tested on: untransfected CHO-K1 cells; test: Saturation radioligand binding, untransfected CHO-K1 membranes
[6] = target: T2, R/H168^4.64 variant apelin receptor (Homo sapiens, UniProt P35414, R168H); test: Saturation radioligand binding, CHO-K1 membranes, R/H168^4.64
T2 construct: expressed in transfected cells; host or cells: CHO-K1, transient, pcDNA3.1
T2 sequence (P35414 1-380 R168H): T1 sequence (P35414 1-380 T89M) with M89T, R168H
Experimental: as §1, §2, §3

[7] = target: T3, V/L38^1.42 variant apelin receptor (Homo sapiens, UniProt P35414, V38L); test: Saturation radioligand binding, CHO-K1 membranes, V/L38^1.42
T3 construct: expressed in transfected cells; host or cells: CHO-K1, transient, pcDNA3.1
T3 sequence (P35414 1-380 V38L): T1 sequence (P35414 1-380 T89M) with V38L, M89T
Experimental: as §1, §2, §3

[8] = tested on: T/X227^5.64 variant apelin receptor; test: Saturation radioligand binding, CHO-K1 membranes, T/X227^5.64; parameters: species or system human
Experimental: as §1, §2
(§4) For binding experiments, membrane preparations were diluted in binding buffer (50 mM TRIS-HCl and 5 mM MgCl2, balanced to pH 7.4 at room temperature) to give a final protein concentration of 1 mg/mL. […] At the end-point, samples were spun in a centrifuge at 20,000 × g for 10 min at 4 °C to terminate equilibrium. Supernatant was aspirated, and pellets were resuspended and triturated in 500 μL ice-cold wash buffer, over ice. Samples were spun a second time at 20,000 × g for 10 min at 4 °C, before aspiration of the supernatant. Radioactivity in pellets was counted using a Cobra II model 5003 gamma counter (Packard).
(§5) Saturation binding data were analysed using the EBDA and LIGAND components of the KELL (Kinetic, EBDA, Ligand, Lowry) software package (Biosoft)[58] to generate receptor affinity (KD) and receptor density (Bmax) values. […] Saturation data were presented using the nonlinear one site-specific binding with Hill slope model fitted by GraphPad Prism version 6.07 for Windows (GraphPad Software).

[9] = tested on: G/X45^1.49 variant apelin receptor; test: Saturation radioligand binding, CHO-K1 membranes, G/X45^1.49; parameters: species or system human
Experimental: as §1, §2, §4, §5

[10] = target: T4, wild-type apelin receptor (Homo sapiens, UniProt P35414); test: Saturation radioligand binding, CHO-K1 membranes, wild-type; settings: WT; mean ± SD, n = 3
T4 construct: expressed in transfected cells; host or cells: CHO-K1 (ECACC 85051005), transient, pcDNA3.1
T4 sequence (P35414 1-380): T1 sequence (P35414 1-380 T89M) with M89T
Experimental: as §1, §2, §3

[11] = tested on: G/X45^1.49 variant apelin receptor; test: High content screening, fluorescent ligand binding in transfected CHO-K1 cells, G/X45^1.49; parameters: species or system human; settings: 1 µM, 90 min, mean ± SD, n = 4 in triplicate
Experimental: (§6) Cells were maintained at 37 °C, in humidified air containing 5% CO2.
(§7) High content screening was used to characterise apelin receptor variant expression, membrane localisation, and fluorescent ligand binding. CHO-K1 cells transiently transfected with wild-type or variant apelin receptor construct tagged C-terminally with eGFP were plated at ~10,000/well in CellCarrier-96 Ultra Plates (PerkinElmer). […] Fluorescent ligand was washed out with HBSS, and cells were fixed with 4% formaldehyde for ~3 min. […] After a final wash, cells were maintained in 100 µL HBSS.
(§8) Cells maintained in the 96-well plates were imaged on an Opera Phenix High Content Screening System (PerkinElmer), a highly sensitive, dual-camera spinning disk confocal fluorescent imaging platform, using a 40x/NA1.1 water immersion objective. […] Three fluorescent channels were used. […] For all channels, excitation laser intensity was set at 50% power, with a 50 ms exposure time. Additionally, each imaging field was imaged using bright-field and digital phase contrast (DPC). […]
(§9) Mean membrane fluorescence was then quantified for the green channel as an indication of membrane protein expression, and for the red channel as an indication of fluorescent ligand binding.

[12] = tested on: T/X227^5.64 variant apelin receptor; test: High content screening, fluorescent ligand binding in transfected CHO-K1 cells, T/X227^5.64; parameters: species or system human; settings: 1 µM, 90 min, mean ± SD, n = 4 in triplicate
Experimental: as §6, §7, §8, §9

[13] = 90 min, room temperature, pH 7.4

Q: With `CCCC[C@H](NC(=O)[C@@H]1CCCN1C(=O)CNC(=O)[C@H](CCCCN)NC(=O)[C@H](Cc1c[nH]cn1)NC(=O)[C@H](CO)NC(=O)[C@H](CC(C)C)NC(=O)[C@H](CCCNC(=N)N)NC(=O)[C@@H]1CCCN1C(=O)[C@H](CCCNC(=N)N)NC(=O)[C@@H]1CCC(=O)N1)C(=O)N1CCC[C@H]1C(=O)N[C@@H](Cc1ccc(O)c(I)c1)C(=O)O` [[^125I]-apelin-13] as the molecule, how does the Bmax [1] read?
A: 440.47 ± 38.36 fmol/mg

Q: What about the “Hill slope (nH)” value [1] of the same molecule?
A: 1.55 ± 0.22

Q: And the “[125I]-apelin-13 binding versus wild-type” value [2]?
A: significantly reduced

Q: What about the pKd [3] of the same molecule?
A: 10.12

Q: And the “[125I]-apelin-13 binding versus wild-type” value [4]?
A: significantly reduced

Q: And the Bmax [5]?
A: NBD

Q: What about the “Hill slope (nH)” value [5] of the same molecule?
A: NBD

Q: And the KD [5, 13]?
A: NBD

Q: And the Bmax [6]?
A: NBD

Q: What about the “Hill slope (nH)” value [6] of the same molecule?
A: NBD

Q: What about the Bmax [7] of the same molecule?
A: NBD

Q: What about the “Hill slope (nH)” value [7] of the same molecule?
A: NBD

Q: What about the Bmax [8] of the same molecule?
A: NBD

Q: And the “Hill slope (nH)” value [8]?
A: NBD

Q: What about the KD [8, 13] of the same molecule?
A: NBD

Q: What about the Bmax [9] of the same molecule?
A: NBD

Q: What about the “Hill slope (nH)” value [9] of the same molecule?
A: NBD

Q: And the KD [9, 13]?
A: NBD

Q: What about the Bmax [10] of the same molecule?
A: 236.80 ± 27.07 fmol/mg

Q: What about the “Hill slope (nH)” value [10] of the same molecule?
A: 1.26 ± 0.22

Q: What does the source list for “ELA647: fluorescently labelled ELA peptide ({647 dye}-QRPVNLTMRRKLRKHNCLQRRCMPLHSRVPFP; ends and bridges not checked; UniProt P0DMC3 23-54, looked up)”?
A: Mem. ELA647 [11]: 20.73 ± 12.55 % WT; Mem. ELA647 [12]: 14.83 ± 7.02 % WT
